Assays:
[1] = Normal tissue damage / cutaneous photosensitivity by ear swelling after irradiation; assay type: in vivo, mice; conditions: 0.88 μmol/kg; same light dose 24 h after drug injection
Description: In a separate group of mice, the normal tissue damage was assessed by irradiating one ear with 40 Jcm^−2 of broad spectrum white light delivered using a fibre bundle from the xenon light source. The incident power at the ear surface was 638 mWcm^−2 and light was applied for 63 s. Animal ears were irradiated with light 24 h after administration of N-Me-NC-m-THPP. The opposing ear served as a control. The response was assessed twenty-four hours after irradiation by measuring the ear thickness at three sites on the upper third of the ear using a fixed-force micrometer with a vernier-interpolated resolution of 2 μm and an accuracy of 10 μm (Neill instruments).

syngeneic colo26 tumour = conditions: m-THPP dose of 1.61 μmol/kg; light at 652 nm; Berenbaum et al. 1993; cited from earlier work

Row | SMILES | Ear Swelling (irradiated − control; μm) [1] [μm] | tumour necrosis (literature) (syngeneic colo26 tumour) [mm]
1 | Oc1cccc(-c2c3nc(c(-c4cccc(O)c4)c4ccc([nH]4)c(-c4cccc(O)c4)c4nc(c(-c5cccc(O)c5)c5ccc2[nH]5)CC4)C=C3)c1 [m-THPC, tetra(3-hydroxyphenyl)dihydroporphyrin] | 41 | –
2 | Oc1cccc(-c2c3nc(c(-c4cccc(O)c4)c4ccc([nH]4)c(-c4cccc(O)c4)c4nc(c(-c5cccc(O)c5)c5ccc2[nH]5)C=C4)C=C3)c1 [m-THPP] | – | 0.14

Source: patent US7319147B2, “Porphyrins and related compounds” (Bioscience Technology Investment Holdings Limited, priority 2000, dated 2008)
